Assay results: patent US12564638B2 (SHANGHAITECH UNIVERSITY, priority 2019, dated 2026)
Like-named read-outs stand apart in the source and are kept apart here.

Tests used:
Assay type in all cases: cell-based
[1] = system: HCC827 cells (EGFR Exon19 del, non-small cell lung cancer cells); test: Cell viability assay (WST/CCK8), HCC827 cells; conditions: Homo sapiens, HCC827, 72 h, HCC827 (Exon19 Del), 72 hours, read-out: IC50 (half inhibitory concentration)
In short: (§1)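 Cells seeded at 3 000/well in RPMI1640 complete medium, dosed next day with compounds (top 10 μM, 3-fold, 10 points) for 72 h. Viability read with WST (CCK8) reagent; DMSO as negative control, EGFR TKIs as positive controls; IC50 determined.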

[2] = system: PC9 cells (EGFR Exon 19 del, non-small cell lung cancer cells); test: Cell viability assay (WST/CCK8), PC9 cells; conditions: Homo sapiens, PC-9, PC9 (Exon19 Del), 72 hours, read-out: IC50 (half inhibitory concentration)
In short: as §1

[3] = system: BT474 cells (HER2 positive breast cancer cells); test: Cell viability assay (CCK8), BT474 cells; conditions: Homo sapiens, BT-474, Table 10, BT474, 72 hours, read-out: IC50 (half inhibitory concentration)
From the text: The cell lines with abnormal EGFR expression used are as follows: • HCC827 cells (EGFR Exon19 del, non-small cell lung cancer cells); • PC9 cells (EGFR Exon 19 del, non-small cell lung cancer cells); • PC9BracA1 (EGFR Exon 19 del+T790M, non-small cell lung cancer cells) • H1975 (EGFR Exon T790M+L858R mutation, non-small cell lung cancer cell line) • BT474 cells (HER2 positive breast cancer cells)
All of the half inhibitory concentrations (IC50) of these compounds of the present invention were determined with WST reagent from Fuyuan Biotec Company. The specific experiment procedures are as follows: Cancer cells were planted in 96-well-plate at the density of 3 000 cells per well with 100 μL RPMI1640 completed culture medium. In the next day, compounds with indicated concentrations were added to the cells, DMSO was used as the negative control and the EGFR TKIs were used to treat cells as the positive groups. After 72 hours drug treatment, cell viability was measured by using the WST reagent following the instructions. The growth inhibition curve of the compounds on cells were plotted by Prism GraphPad, and the compounds IC50 calculated from it.
The cell viability assays were taken to determine the anti-tumor activity of these indicated compounds in BT474 cells, which can overexpress HER2 protein. The cells were treated with the gradient concentration of these compounds (the maximum concentration: 10 μM; 3-fold dilution ratio, 10 concentration gradients) for 72 hours and then incubated with the CCK8 reagent to determine the cell viability.

[4] = Table 6, canertinib-based compounds, WST

IC50 ([1]; WST (CCK8)) [nM]	IC50 ([2]; WST (CCK8)) [nM]	IC50 [3] [nM]	IC50 [1, 4] [nM]	IC50 [2, 4] [nM]	SMILES
20	0.8	12.3	–	–	COc1cc2ncnc(Nc3ccc(F)c(Cl)c3)c2cc1NC(=O)/C=C/CN1CCC(N)CC1 [SIAIS249077, (E)-4-(4-aminopiperidin-1-yl)-N-(4-((3-chloro-4-fluorophenyl)amino)-7-methoxyquinazolin-6-yl)but-2-enamide]
6	6.1	52.5	–	–	COc1cc2ncnc(Nc3ccc(F)c(Cl)c3)c2cc1NC(=O)/C=C/CN1CCC(NC(=O)CCNc2cccc3c2C(=O)N(C2CCC(=O)NC2=O)C3=O)CC1 (stereo not drawn) [SIAIS249082, (E)-N-(4-((3-chloro-4-fluorophenyl)amino)-7-methoxyquinazolin-6-yl)-4-(4-(3-((2-(2,6-dioxopiperidin-3-yl)-1,3-dioxoisoindolin-4-yl)amino)propanamido)piperidin-1-yl)but-2-enamide]
–	–	1.85	–	–	COc1cc2ncnc(Nc3ccc(F)c(Cl)c3)c2cc1NC(=O)/C=C/CN1CCC(N2CCN(CCCCCSc3cccc4c3CN(C3CCC(=O)NC3=O)C4=O)CC2)CC1 (stereo not drawn) [SIAIS262064, (E)-N-(4-((3-chloro-4-fluorophenyl)amino)-7-methoxyquinazolin-6-yl)-4-(4-(4-(5-((2-(2,6-dioxopiperidin-3-yl)-1-oxoisoindolin-4-yl)thio)pentyl)piperazin-1-yl)piperidin-1-yl)but-2-enamide]
14	42.5	–	–	–	COc1cc2ncnc(Nc3ccc(F)c(Cl)c3)c2cc1NC(=O)/C=C/CN1CCC(NC(=O)CCCSc2cccc3c2CN(C2CCC(=O)NC2=O)C3=O)CC1 (stereo not drawn) [SIAIS262112, (E)-N-(4-((3-chloro-4-fluorophenyl)amino)-7-methoxyquinazolin-6-yl)-4-(4-(4-((2-(2,6-dioxopiperidin-3-yl)-1-oxoisoindolin-4-yl)thio)butanamido)piperidin-1-yl)but-2-enamide]
–	–	–	47.2	179	C=CC(=O)Nc1cc2c(Nc3ccc(F)c(Cl)c3)ncnc2cc1OCCCN1CCN(C(=O)CCOCCOCCOCCOCCC(=O)N[C@H](C(=O)N2C[C@H](O)C[C@H]2C(=O)NCc2ccc(-c3scnc3C)cc2)C(C)(C)C)CC1 [SIAIS262130, (2S,4R)-1-((S)-19-(4-(3-((6-acrylamido-4-((3-chloro-4-fluorophenyl)amino)quinazolin-7-yl)oxy)propyl)piperazin-1-yl)-2-(tert-butyl)-4,19-dioxo-7,10,13,16-tetraoxa-3-azanonadecanoyl)-4-hydroxy-N-(4-(4-methylthiazol-5-yl)benzyl)pyrrolidine-2-carboxamide]
1.3	74	–	–	–	COc1cc2ncnc(Nc3ccc(F)c(Cl)c3)c2cc1NC(=O)/C=C/CN1CCC(N2CCN(Cc3ccc(CSc4cccc5c4CN(C4CCC(=O)NC4=O)C5=O)cc3)CC2)CC1 (stereo not drawn) [SIAIS337021, (E)-N-(4-((3-chloro-4-fluorophenyl)amino)-7-methoxyquinazolin-6-yl)-4-(4-(4-(4-(((2-(2,6-dioxopiperidin-3-yl)-1-oxoisoindolin-4-yl)thio)methyl)benzyl)piperazin-1-yl)piperidin-1-yl)but-2-enamide]
5.6	36	–	–	–	COc1cc2ncnc(Nc3ccc(F)c(Cl)c3)c2cc1NC(=O)/C=C/CN1CCC(N2CCN(C(=O)COc3cccc4c3CN(C3CCC(=O)NC3=O)C4=O)CC2)CC1 (stereo not drawn) [SIAIS337025, (E)-N-(4-((3-chloro-4-fluorophenyl)amino)-7-methoxyquinazolin-6-yl)-4-(4-(4-(2-((2-(2,6-dioxopiperidin-3-yl)-1-oxoisoindolin-4-yl)oxy)acetyl)piperazin-1-yl)piperidin-1-yl)but-2-enamide]
0.5	8.6	–	–	–	COc1cc2ncnc(Nc3ccc(F)c(Cl)c3)c2cc1NC(=O)/C=C/CN1CCC(N2CCN(C(=O)CCCCOc3cccc4c3CN(C3CCC(=O)NC3=O)C4=O)CC2)CC1 (stereo not drawn) [SIAIS337026, (E)-N-(4-((3-chloro-4-fluorophenyl)amino)-7-methoxyquinazolin-6-yl)-4-(4-(4-(5-((2-(2,6-dioxopiperidin-3-yl)-1-oxoisoindolin-4-yl)oxy)pentanoyl)piperazin-1-yl)piperidin-1-yl)but-2-enamide]
1.1	13.2	–	–	–	COc1cc2ncnc(Nc3ccc(F)c(Cl)c3)c2cc1NC(=O)/C=C/CN1CCC(N2CCN(C(=O)CCCCCOc3cccc4c3CN(C3CCC(=O)NC3=O)C4=O)CC2)CC1 (stereo not drawn) [SIAIS337027, (E)-N-(4-((3-chloro-4-fluorophenyl)amino)-7-methoxyquinazolin-6-yl)-4-(4-(4-(6-((2-(2,6-dioxopiperidin-3-yl)-1-oxoisoindolin-4-yl)oxy)hexanoyl)piperazin-1-yl)piperidin-1-yl)but-2-enamide]
0.9	20.3	–	–	–	COc1cc2ncnc(Nc3ccc(F)c(Cl)c3)c2cc1NC(=O)/C=C/CN1CCC(N2CCN(C(=O)CCCCCCOc3cccc4c3CN(C3CCC(=O)NC3=O)C4=O)CC2)CC1 (stereo not drawn) [SIAIS337028, (E)-N-(4-((3-chloro-4-fluorophenyl)amino)-7-methoxyquinazolin-6-yl)-4-(4-(4-(7-((2-(2,6-dioxopiperidin-3-yl)-1-oxoisoindolin-4-yl)oxy)heptanoyl)piperazin-1-yl)piperidin-1-yl)but-2-enamide]
0.3	28.4	–	–	–	COc1cc2ncnc(Nc3ccc(F)c(Cl)c3)c2cc1NC(=O)/C=C/CN1CCC(N2CCN(CCCCCCOc3cccc4c3CN(C3CCC(=O)NC3=O)C4=O)CC2)CC1 (stereo not drawn) [SIAIS337029, (E)-N-(4-((3-chloro-4-fluorophenyl)amino)-7-methoxyquinazolin-6-yl)-4-(4-(4-(6-((2-(2,6-dioxopiperidin-3-yl)-1-oxoisoindolin-4-yl)oxy)hexyl)piperazin-1-yl)piperidin-1-yl)but-2-enamide]
4.3	6.3	–	–	–	COc1cc2ncnc(Nc3ccc(F)c(Cl)c3)c2cc1NC(=O)/C=C/CN1CCC(N2CCN(C(=O)CCCCCNc3cccc4c3CN(C3CCC(=O)NC3=O)C4=O)CC2)CC1 (stereo not drawn) [SIAIS337035, (E)-N-(4-((3-chloro-4-fluorophenyl)amino)-7-methoxyquinazolin-6-yl)-4-(4-(4-(6-((2-(2,6-dioxopiperidin-3-yl)-1-oxoisoindolin-4-yl)amino)hexanoyl)piperazin-1-yl)piperidin-1-yl)but-2-enamide]
0.7	1.3	–	–	–	COc1cc2ncnc(Nc3ccc(F)c(Cl)c3)c2cc1NC(=O)/C=C/CN1CCC(N2CCN(C(=O)CCCCCCNc3cccc4c3CN(C3CCC(=O)NC3=O)C4=O)CC2)CC1 (stereo not drawn) [SIAIS337036, (E)-N-(4-((3-chloro-4-fluorophenyl)amino)-7-methoxyquinazolin-6-yl)-4-(4-(4-(7-((2-(2,6-dioxopiperidin-3-yl)-1-oxoisoindolin-4-yl)amino)heptanoyl)piperazin-1-yl)piperidin-1-yl)but-2-enamide]
0.3	0.7	–	–	–	COc1cc2ncnc(Nc3ccc(F)c(Cl)c3)c2cc1NC(=O)/C=C/CN1CCC(N2CCN(C(=O)CCCCCCCCCSc3cccc4c3CN(C3CCC(=O)NC3=O)C4=O)CC2)CC1 (stereo not drawn) [SIAIS337037, (E)-N-(4-((3-chloro-4-fluorophenyl)amino)-7-methoxyquinazolin-6-yl)-4-(4-(4-(10-((2-(2,6-dioxopiperidin-3-yl)-1-oxoisoindolin-4-yl)thio)decanoyl)piperazin-1-yl)piperidin-1-yl)but-2-enamide]
0.3	1.6	–	–	–	COc1cc2ncnc(Nc3ccc(F)c(Cl)c3)c2cc1NC(=O)/C=C/CN1CCC(N2CCN(C(=O)CCCCCCCCCCSc3cccc4c3CN(C3CCC(=O)NC3=O)C4=O)CC2)CC1 (stereo not drawn) [SIAIS337038, (E)-N-(4-((3-chloro-4-fluorophenyl)amino)-7-methoxyquinazolin-6-yl)-4-(4-(4-(11-((2-(2,6-dioxopiperidin-3-yl)-1-oxoisoindolin-4-yl)thio)undecanoyl)piperazin-1-yl)piperidin-1-yl)but-2-enamide]
5.7	19.7	–	–	–	COc1cc2ncnc(Nc3ccc(F)c(Cl)c3)c2cc1NC(=O)/C=C/CN1CCC(N2CCN(CCCCCCCCCCSc3cccc4c3CN(C3CCC(=O)NC3=O)C4=O)CC2)CC1 (stereo not drawn) [SIAIS337039, (E)-N-(4-((3-chloro-4-fluorophenyl)amino)-7-methoxyquinazolin-6-yl)-4-(4-(4-(10-((2-(2,6-dioxopiperidin-3-yl)-1-oxoisoindolin-4-yl)thio)decyl)piperazin-1-yl)piperidin-1-yl)but-2-enamide]
